Data taken from patent US20250275539A1, “APYRASE INHIBITORS” (Texas Crop Science, Inc., priority 2024, published 2025).

System: apyrase
Assay: Apyrase inhibition assay (screen for apyrase inhibitors, phosphate release read at 630 nm)
Assay type: biochemical
Conditions: inhibitor conc at 1 mM (10 μl added), 3 mM ATP, pH 6.5, room temperature 1 hr
Description: Apyrase inhibitors useful as enhancers of pesticidal activity are assessed using an in vitro assay. The method of Windsor, Bio Techniques 33:1024-1030 (November 2002) was used as follows
• 96 well plates were used for the assay: (Greiner bio-one: REF-655901-96 well, PS, F-bottom, Clear, Non-binding)
• Reaction Buffer: 60 mM Hepes; 3 mM MgCl2, 3 mM CaCl2) and 3 mM ATP (pH 6.5) • Development Buffer A: 2% aqueous ammonium molybdate • Development Buffer B: 11% ascorbic acid in 37.5% TCA in water • Stop buffer C: 2% trisodium citrate in 2% acetic acid solution in water
• Add 100 μl of reaction buffer to each well. • Add 10 μl of DMSO (control) or inhibitor/compound or compounds such as N1915 or orthovanadate to each well. (use inhibitor conc at 1 mM; orthovanadate at 2 mM and N1915 at 1 mM) • Add 10 μl of apyrase (concentration based on optimization—Dilute 1 U/μl enzyme to different concentrations such as 0.1 U, 0.05 U, 0.0025, 0.001 U, 0.0005 U—to find a good range) • Incubate plate at room temperature for 1 hr • Mix development buffer A and B in the ratio of 1:1.5 (just before use). • Add 50 μl of A: B mix in each well (incubate for 2 mins) • Add 50 μl of C in each well • Measure/Read Absorbance of plate @630 nm
Inhibitory data for the apyrase assay described above are provided for selected compounds in Table 3. D is inhibition of 0% to 10%, C is inhibition from 10% to 20%, B is inhibition from 20% to 30%, and A is inhibition above 30%. Blank entries signify compounds that were not tested.

Compound | Inhibition
CCCc1ccc(S(=O)(=O)Nc2ccc(Cn3cccn3)cc2)cc1 [Compound A-111, N-(4-((1H-pyrazol-1-yl)methyl)phenyl)-4-propylbenzenesulfonamide] | D (D is inhibition of 0% to 10%)
CCCc1ccc(S(=O)(=O)Nc2cccc(C(N)=O)c2)cc1 [Compound A-84, 3-((4-propylphenyl)sulfonamido) benzamide] | D (D is inhibition of 0% to 10%)
CCCc1ccc(S(=O)(=O)Nc2ccccc2Br)cc1 [Compound A-55, N-(2-bromophenyl)-4-propylbenzenesulfonamide] | D (D is inhibition of 0% to 10%)
CCCc1ccc(S(=O)(=O)Nc2cccc(C(=O)O)c2)cc1 [Compound A-75, 3-((4-propylphenyl)sulfonamido) benzoic acid] | D (D is inhibition of 0% to 10%)
CCCc1ccc(S(=O)(=O)Nc2c(C)cccc2C)cc1 [Compound A-92, N-(2,6-dimethylphenyl)-4-propylbenzenesulfonamide] | B (B is inhibition from 20% to 30%)
CCCc1ccc(S(=O)(=O)Nc2cc(Cl)ccc2N2CCOCC2)cc1 [Compound A-47, N-(5-chloro-2-morpholinophenyl)-4-propylbenzenesulfonamide] | B (B is inhibition from 20% to 30%)
CCCc1ccc(S(=O)(=O)Nc2ccccc2-n2cnnc2C)cc1 [Compound A-22, N-(2-(3-methyl-4H-1,2,4-triazol-4-yl)phenyl)-4-propylbenzenesulfonamide] | D (D is inhibition of 0% to 10%)
CCCc1ccc(S(=O)(=O)Nc2ccc(CC(C)C(=O)O)cc2)cc1 (stereo not drawn) [Compound A-19, 2-methyl-3-(4-((4-propylphenyl)sulfonamido)phenyl)propanoic acid] | B (B is inhibition from 20% to 30%)
Cc1cccc(NS(=O)(=O)c2ccc(F)cc2)c1 [Compound A-58, 4-fluoro-N-(m-tolyl)benzenesulfonamide] | D (D is inhibition of 0% to 10%)
N#Cc1cnc(Cl)c(NS(=O)(=O)c2ccc(-c3ccccc3)cc2)c1 [Compound A-24, N-(2-chloro-5-cyanopyridin-3-yl)-[1,1′-biphenyl]-4-sulfonamide] | C (C is inhibition from 10% to 20%)
Cc1cccc(NS(=O)(=O)c2ccc(Cl)cc2)c1 [Compound A-56, 4-chloro-N-(m-tolyl)benzenesulfonamide] | C (C is inhibition from 10% to 20%)
Cc1cccc(NS(=O)(=O)c2ccc(C=CC(=O)O)cc2)c1 [Compound A-61, 3-(4-(N-(m-tolyl)sulfamoyl)phenyl)acrylic acid] | D (D is inhibition of 0% to 10%)
CCCc1ccc(S(=O)(=O)Nc2cc(OC)c(OC)cc2C(=O)OC)cc1 [Compound A-96, methyl 4,5-dimethoxy-2-((4-propylphenyl)sulfonamido) benzoate] | C (C is inhibition from 10% to 20%)
CCCc1ccc(S(=O)(=O)Nc2ccc(-c3nnc4n3CCCCC4)cc2)cc1 [Compound A-93, 4-propyl-N-(4-(6,7,8,9-tetrahydro-5H-[1,2,4]triazolo[4,3-a]azepin-3-yl)phenyl) benzenesulfonamide] | D (D is inhibition of 0% to 10%)
Cl.NCCNS(=O)(=O)c1ccc(-c2ccccc2)cc1 [Compound A-15, N-(2-aminoethyl)-[1,1′-biphenyl]-4-sulfonamide hydrochloride] | D (D is inhibition of 0% to 10%)
CCCc1ccc(S(=O)(=O)Nc2c(F)cc(F)cc2Br)cc1 [Compound A-51, N-(2-bromo-4,6-difluorophenyl)-4-propylbenzenesulfonamide] | D (D is inhibition of 0% to 10%)
CCCc1ccc(S(=O)(=O)Nc2ccccc2C(N)=O)cc1 [Compound A-86, 2-((4-propylphenyl)sulfonamido) benzamide] | D (D is inhibition of 0% to 10%)
CCCc1ccc(S(=O)(=O)Nc2cccc(F)c2C(=O)O)cc1 [Compound A-42, 2-fluoro-6-((4-propylphenyl)sulfonamido) benzoic acid] | B (B is inhibition from 20% to 30%)
CCCc1ccc(S(=O)(=O)Nc2ccc(S(C)(=O)=O)cc2)cc1 [Compound A-50, N-(4-(methylsulfonyl)phenyl)-4-propylbenzenesulfonamide] | C (C is inhibition from 10% to 20%)
CCCc1ccc(S(=O)(=O)Nc2ccccc2CC)cc1 [Compound A-48, N-(2-ethylphenyl)-4-propylbenzenesulfonamide] | B (B is inhibition from 20% to 30%)

Compound | Inhibition
CCCc1ccc(S(=O)(=O)Nc2cc(Cl)c(OC)cc2OC)cc1 [Compound A-49, N-(5-chloro-2,4-dimethoxyphenyl)-4-propylbenzenesulfonamide] | D (D is inhibition of 0% to 10%)
CCCc1ccc(S(=O)(=O)Nc2ccccc2Cc2ccccc2)cc1 [Compound A-91, N-(2-benzylphenyl)-4-propylbenzenesulfonamide] | B (B is inhibition from 20% to 30%)
Cn1ccnc(NS(=O)(=O)c2ccc(-c3ccccc3)cc2)c1=O [Compound A-23, N-(4-methyl-3-oxo-3,4-dihydropyrazin-2-yl)-[1,1′-biphenyl]-4-sulfonamide] | B (B is inhibition from 20% to 30%)
O=S(=O)(c1ccc(-c2ccccc2)cc1)N1CCCSCC1 [Compound A-106, 4-([1,1′-biphenyl]-4-ylsulfonyl)-1,4-thiazepane] | D (D is inhibition of 0% to 10%)
CCCc1ccc(S(=O)(=O)Nc2ccccc2N2CCCC2=O)cc1 [Compound A-6, N-(2-(2-oxopyrrolidin-1-yl)phenyl)-4-propylbenzenesulfonamide] | D (D is inhibition of 0% to 10%)
CCCc1ccc(S(=O)(=O)Nc2ccc3c(c2)OCCO3)cc1 [Compound A-54, N-(2,3-dihydrobenzo[b][1,4]dioxin-6-yl)-4-propylbenzenesulfonamide] | D (D is inhibition of 0% to 10%)
CCCc1ccc(S(=O)(=O)Nc2ccc(C(=O)O)cc2)cc1 [Compound A-44, 4-((4-propylphenyl)sulfonamido) benzoic acid] | D (D is inhibition of 0% to 10%)
CCCc1ccc(S(=O)(=O)Nc2cc(Cl)ccc2OC)cc1 [Compound A-74, N-(5-chloro-2-methoxyphenyl)-4-propylbenzenesulfonamide] | C (C is inhibition from 10% to 20%)
Cc1cccc(NS(=O)(=O)c2ccc(OC(F)(F)F)cc2)c1 [Compound A-63, N-(m-tolyl)-4-(trifluoromethoxy)benzenesul-fonamide] | C (C is inhibition from 10% to 20%)
O=S(=O)(c1ccc(-c2ccccc2)cc1)N1CCN(C2CCOCC2)CC1 [Compound A-11, 1-([1,1′-biphenyl]-4-ylsulfonyl)-4-(tetrahydro-2H-pyran-4-yl)piperazine] | D (D is inhibition of 0% to 10%)
CCCc1ccc(S(=O)(=O)Nc2ccc3c(c2)CCN3C(C)=O)cc1 [Compound A-115, N-(1-acetylindolin-5-yl)-4-propylbenzenesulfonamide] | A (A is inhibition above 30%)
CCCc1ccc(S(=O)(=O)Nc2cc(Cl)ccc2Sc2nncn2C)cc1 [Compound A-67, N-(5-chloro-2-((4-methyl-4H-1,2,4-triazol-3-yl)thio)phenyl)-4-propylbenzenesulfonamide] | C (C is inhibition from 10% to 20%)
CCCc1ccc(S(=O)(=O)Nc2c(F)cccc2F)cc1 [Compound A-87, N-(2,6-difluorophenyl)-4-propylbenzenesulfonamide] | C (C is inhibition from 10% to 20%)
O=S(=O)(Nc1nnc[nH]1)c1ccc(-c2ccccc2)cc1 [Compound A-13, N-(4H-1,2,4-triazol-3-yl)-[1,1′-biphenyl]-4-sulfonamide] | D (D is inhibition of 0% to 10%)
CCCc1ccc(S(=O)(=O)Nc2ccc(F)c(NC(C)=O)c2)cc1 [Compound A-35, N-(2-fluoro-5-((4-propylphenyl)sulfonamido)phenyl)acetamide] | D (D is inhibition of 0% to 10%)
CCCc1ccc(S(=O)(=O)Nc2ccc(NC(=O)C3CC3)cc2)cc1 [Compound A-31, N-(4-((4-propylphenyl)sulfonamido)phenyl)cyclopropanecarbox-amide] | D (D is inhibition of 0% to 10%)
CCCc1ccc(S(=O)(=O)Nc2ccc(S(=O)(=O)N(C)C)cc2)cc1 [Compound A-97, N,N-dimethyl-4-((4-propylphenyl)sulfonamido) benzenesulfonamide] | C (C is inhibition from 10% to 20%)
CCN1CCCC(NS(=O)(=O)c2ccc(-c3ccccc3)cc2)C1 (stereo not drawn) [Compound A-117, N-(1-ethylpiperidin-3-yl)-[1,1′-biphenyl]-4-sulfonamide] | D (D is inhibition of 0% to 10%)
CCCc1ccc(S(=O)(=O)Nc2cccc(-c3nnnn3C3CC3)c2)cc1 [Compound A-28, N-(3-(1-cyclopropyl-1H-tetrazol-5-yl)phenyl)-4-propylbenzenesulfonamide] | D (D is inhibition of 0% to 10%)
